Experimental data reported in paper PMC6424980, “Distinct G protein-coupled receptor phosphorylation motifs modulate arrestin affinity and activation and global conformation” (Nature Communications, 2019).

Key:
arrestin-1 = assay: [15N,1H]TROSY NMR titration of arrestin-1 with peptide; format: binding, bovine; conditions: peptide:arrestin-1 up to 10:1
Procedure: ^2H,^15N,^13C-labeled arrestin-1 aliquots were thawed quickly under running water, transferred to 30 kDa-cutoff Vivaspin (0.5 ml, Sartorius) centrifugal spin concentrators, and concentrated to approximately 600 μM. The concentrator was immediately transferred into a beaker filled with 400 ml of NMR buffer 1 or 2 (see below) carried by a floatation device. The dialysis was performed at 4 °C overnight. On the next day the concentration was determined by UV absorbance at 280 nm (molar extinction coefficient 26,360/mol/cm). […] The dialysis was performed at 4 °C overnight, and the peptide concentration was determined by its absorbance at 205 nm (molar extinction coefficient: 54,310/mol/cm). […]
NMR measurements were performed on Bruker Avance III-HD 600 or 900 MHz spectrometer using a CTCI cryo-cooled probehead. […] Pulse lengths were calibrated for ^1H manually and for ^13C/^15N using an in-house automated procedure. pH was monitored using the position of the phosphate signal in NMR buffer 2 as an internal reference and varied by no more than 0.03 pH units during peptide titration experiments. [^15N,^1H]TROSY experiments were recorded with internal ETH pulse sequences, whereas 3D triple resonance TROSY experiments were recorded using the manufacturer’s pulse sequences. […]

[1] = molecular target: T1, arrestin-1 (monomerizing mutant F85A, F197A) (Bos taurus, UniProt P08168, F197A/F85A); assay: Fluorescence anisotropy binding of fluorescein-labelled peptides to arrestin-1; set-up: species or system bovine
T1 construct: made in house; host or cells: E. coli NiCo (DE3) cells (New England Biolabs), pET-15b vector
Excerpt: Synthesized cDNAs of bovine arrestin-1, human arrestin-2 and human arrestin-3 were ordered from Genewiz, amplified by PCR and cloned (Supplementary Information Table 5) into the pET-15b vector (Novagen), using the Gibson Assembly protocol. The constructs contained an N-terminal hexa histidine tag linked by a linker that contained a Tobacco Etch Virus cleavage site (TEV; […]). PCR was used to introduce the monomerizing arrestin-1 mutations (F85A, F197A)[58]. Note that this mutant was employed for fluorescence anisotropy, trypsin digestion, and NMR experiments. Wild-type arrestin-2 and -3 were used for fluorescence anisotropy and trypsin digestion experiments. […] The arrestin-1 in this construct had the wild-type sequence. Note that this construct differs slightly from that previously published[59],[60] and was optimized for purification. We verified the functionality of this fusion construct using the standard centrifugal pull-down assay using phosphorylated rhodopsin in native ROS membranes.
0.1–0.2 mg of lyophilized peptide was dissolved in 50 µl of 50 mM phosphate-buffered saline (PBS) buffer at pH 7.0, and then two molar equivalents of fluorescein-5-maleimide dye stock dissolved in dimethylsulfoxid was added. The reaction was carried out at RT in the dark. After 1 h the reaction was topped up with 1 ml of ice-cold 100% acetone and stored until the next day at −20 °C. The precipitated peptide was centrifuged (13,000 × g) for 10 min. The labeled and precipitated peptide was sedimented, and the supernatant was removed. The peptide was resuspended again in ice-cold acetone, stored for 1 h at −20 °C and centrifuged (13,000 × g) for 10 min. […] The precipitated peptide was dried at RT in the dark. It was dissolved in 50 µl of 20 mM Bis-Tris propane pH 7.0 and 150 mM NaCl and its concentration was determined by absorbance. A molar extinction coefficient of 70,000/M/cm at pH 7.0 was assumed for calculating the concentration of the labeled peptide stock.
An 11-step serial dilution series of arrestin in 20 mM Bis-Tris propane pH 7.0, 150 mM NaCl, 8 mM 2‑mercaptoethanol, 2% (w/w) BSA, 0.02% (v/v) Tween-20 was prepared and transferred to a black high-bottom 384-well plate (Greiner). As control for free peptide, a position with only buffer was included. The peptide was added at a final concentration of 20 nM to each well. The plate was closed by a clear cover and vortexed for 15 s. Afterwards it was centrifuged (800 × g) for 2 min and stored at RT for 20 min. The reading was performed by default settings of PHERAstar plate-reader (BMG Labtech) and excitation‑/emission-wavelengths of 485 nm (12 nm bandpass)/520 nm (30 nm bandpass) were used. The analysis was performed using Origin2016 (Microcal Inc) software by fitting the data to a one-to-one binding model:2 r=R0+△R*P/Kd+P, where r stands for anisotropy, R0 stands for anisotropy of the ligand, ΔR stands for anisotropy of the complex minus anisotropy of the ligand, P stands for the concentration of protein, and Kd stands for the dissociation constant of the ligand.

T1 sequence (P08168 whole entry F85A/F197A): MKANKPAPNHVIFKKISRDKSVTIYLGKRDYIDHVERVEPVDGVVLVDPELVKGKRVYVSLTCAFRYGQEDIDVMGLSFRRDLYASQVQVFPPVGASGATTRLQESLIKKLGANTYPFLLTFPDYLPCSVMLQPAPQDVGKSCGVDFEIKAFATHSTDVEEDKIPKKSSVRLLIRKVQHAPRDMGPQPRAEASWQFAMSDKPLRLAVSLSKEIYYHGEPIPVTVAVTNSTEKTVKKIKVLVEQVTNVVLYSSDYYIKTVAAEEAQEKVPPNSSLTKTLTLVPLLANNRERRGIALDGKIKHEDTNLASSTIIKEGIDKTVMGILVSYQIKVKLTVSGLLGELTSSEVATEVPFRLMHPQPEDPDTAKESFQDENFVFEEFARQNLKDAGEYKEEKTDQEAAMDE

Sequence: CDDEASTTVSKTETSQVAPA [5P, multiply phosphorylated rhodopsin C-terminus peptide lacking key site pS343]
- NMR chemical shift / peak changes in arrestin-1 (in words) (arrestin-1): minimal chemical shift changes
- binding to arrestin-1 (in words) [1]: significant loss of affinity
